Laboratory results from patent US6040291A, “Antimicrobial peptide” (Seikagaku Corporation, priority 1998, dated 2000).

Tested on: E. coli O157:H7
Experiment: Antimicrobial activity on E. coli O157:H7 (CFU count, IC50)
Type: cell-based
Settings: Table 6
Experimental: Measurement method for antimicrobial activity: For the measurement of antimicrobial activity, E. coli [E. coli O157:H7 (collected from an E. coli O157 patients in Okayama prefecture, Kanagawa prefecture and Morioka city of Iwate Prefecture)], Klebsiella or Methicillin resistant Staphylococcus aureus; MRSA] was used.
These bacteria were grown in a liquid medium (Tryptosoy broth; manufactured by Eiken Kagaku). The bacteria cells in a logarithmic growth phase were collected, washed with PBS (pH 7.2), and adjusted to a final concentration of 5 ×10^3 to 1×10^4 cells/ml. To 450 μl of cell suspension, 50 μl of samples (peptide) in various concentrations were each added and mixtures were incubated at 37° C. for 1 hour. After the incubation, 100 μl of each reaction mixture was spread on an agarose medium (Nutrient agar; manufactured by Eiken Kagaku). This was incubated at 37° C. for 24 hours and the colony-forming unit (CFU) was counted to obtain 50% inhibition concentration (IC50).
Polymyxin B (known antimicrobial agent), A1, the peptide of the present invention (b), A3, the peptide of the present invention (d), A5 and A6 were used as samples and their antimicrobial activities on E. coli [E. coli O157:H7 (collected from E. coli O157 patients in Okayama prefecture, Kanagawa prefecture and Morioka city of Iwate Prefecture)] were examined by the above-described measurement method. […]

## Polymyxin B
Isolate Kanagawa
  Antimicrobial Activity on E. Coli O157:H7 (IC50): < 2.5 µg/mL
Isolate Okayama
  Antimicrobial Activity on E. Coli O157:H7 (IC50): 0.2 µg/mL
